Laboratory results: patent publication US9511050B2, “Methods and compositions for treating cancer” (GEORGETOWN UNIVERSITY, priority 2013, dated 2016)
Where two headings read alike, the source gives them in different places.

Columns and labels:
Assay type in all cases: cell-based
[1] = system: TC32 (human ESFT cell line); test: IC50 activity in TC32 cells
Protocol: (§1) Compounds provided in Table 2 were prepared using methods similar to those described herein. The structures and IC50 activities of particular compounds in PANC1 (a human pancreatic carcinoma), TC32 (human ESFT cell line), and TC71 (human ESFT cell line) cells are summarized in Table 2.

[2] = system: PANC1 (a human pancreatic carcinoma); test: IC50 activity in PANC1 cells
Protocol: as §1

[3] = system: TC71 (human ESFT cell line); test: IC50 activity in TC71 cells
Protocol: as §1
Growth inhibition of ESFT cells was measured for various concentrations of particular compounds.

[4] = Homo sapiens, TC-32, TC32 cells
[5] = Homo sapiens, PANC-1, PANC1 cells
[6] = Homo sapiens, TC-71, TC71 cells
[7] = PANC1 cells, read-out: IC50 PANC 1

| SMILES | IC50 [1, 4] | IC50 ([1]; TC32 cells) | IC50 [2, 5] | IC50 [3, 6] | IC50 ([3]; TC71 cells) | potency compared with YK-4-279 ([3]; TC71 cells) | IC50 [2, 7] |
| --- | --- | --- | --- | --- | --- | --- | --- |
| CN(C)c1ccc(C(=O)/C=C2\C(=O)Nc3c(Cl)ccc(Cl)c32)cc1 [PT-1-38] | 0.291 µM | 0.383 µM |  |  |  |  |  |
| COc1cc(OC)cc(C(=O)CC2(O)C(=O)Nc3c(Cl)ccc(Cl)c32)c1 (centres unmarked) [PT-1-22] | 8.99 µM |  | ≥ 40 µM | ≥ 40 µM |  |  |  |
| C/C=C1\NC(=O)C(O)(CC(=O)c2ccc(OC)cc2)\C1=C/C (centres unmarked) [PT-2-37] | ≥ 40 µM |  | ≥ 40 µM | ≥ 40 µM |  |  |  |
| COc1cccc(C(=O)CC2(O)C(=O)Nc3c(Cl)ccc(Cl)c32)c1OC (centres unmarked) [PT-1-20] | ≥ 40 µM |  | ≥ 40 µM | ≥ 40 µM |  |  |  |
| COc1ccc(C(=O)CC2(O)C(=O)N(C)c3c(Cl)ccc(Cl)c32)cc1 (centres unmarked) [PT-2-69] | 2.18 µM | 2.31 µM | ≥ 40 µM |  |  |  |  |
| O=C(CC1(O)C(=O)Nc2c(Cl)ccc(Cl)c21)c1ccc(Oc2ccccc2)cc1 (centres unmarked) [PT-1-60] | ≥ 40 µM |  | ≥ 40 µM | ≥ 40 µM |  |  |  |
| COc1ccc(C(=O)CC2(O)C(=O)N(C)c3ccccc32)cc1 (centres unmarked) [PT-2-64] | ≥ 40 µM |  | ≥ 40 µM | ≥ 40 µM |  |  |  |
| CC(C)Oc1ccc(C(=O)CC2(O)C(=O)Nc3c(Cl)ccc(Cl)c32)cc1 (centres unmarked) [PT-1-69] | ≥ 40 µM |  | ≥ 40 µM | ≥ 40 µM |  |  |  |
| N#Cc1ccc(C(=O)CC2(O)C(=O)Nc3c(Cl)ccc(Cl)c32)cc1 (centres unmarked) [PT-1-11] | 10.3 µM |  | ≥ 40 µM | 12.3 µM |  |  |  |
| COc1ccc(C(=O)CC2(O)C(=O)Nc3c(Cl)cccc32)cc1 (centres unmarked) [PT-2-52] | ≥ 40 µM |  | ≥ 40 µM | ≥ 40 µM |  |  |  |
| O=C(CC1(O)C(=O)Nc2c(Cl)ccc(Cl)c21)c1ccc(C(F)(F)F)cc1 (centres unmarked) [PT-1-15] | 2.95 µM |  | 10.9 µM | 6.94 µM |  |  |  |
| COc1ccc(C(=O)/C=C2/C(=O)Nc3c(Cl)ccc(Cl)c32)cc1 [PT-1-54] | 1.5 µM | 2.57 µM |  | 1.36 µM | 2.2 µM |  |  |
| Cc1ccc(C(=O)CC2(O)C(=O)Nc3c(Cl)ccc(Cl)c32)cc1 (centres unmarked) [YK-4-280] | 12.1 µM |  | ≥ 40 µM | 30.1 µM |  |  |  |
| COc1ccc(CC(=O)CC2(O)C(=O)Nc3c(Cl)ccc(Cl)c32)cc1 (centres unmarked) [PT-2-59] | ≥ 40 µM |  | ≥ 40 µM | ≥ 40 µM |  |  |  |
| CSc1ccc(C(=O)CC2(O)C(=O)Nc3c(Cl)ccc(Cl)c32)cc1 (centres unmarked) [PT-1-67] | 0.982 µM | 1.2 µM | 28.1 µM | 0.909 µM | 1.41 µM |  |  |
| CCOc1ccc(C(=O)/C=C2\C(=O)Nc3c(Cl)ccc(Cl)c32)cc1 [PT-1-43] | 1.41 µM |  | 11 µM | 5.66 µM |  |  |  |
| CN(C)c1ccc(C(=O)CC2(O)C(=O)Nc3c(Cl)ccc(Cl)c32)cc1 (centres unmarked) [PT-1-17] | 0.259 µM | 0.284 µM | ≥ 40 µM | 0.401 µM | 0.294 µM | appeared to be more potent |  |
| COc1ccc(C(=O)CC2(O)C(=O)Nc3ccc(Cl)cc32)cc1 (centres unmarked) [PT-2-56] | 12.4 µM |  | ≥ 40 µM | ≥ 40 µM |  |  |  |
| COc1ccc(C(=O)/C=C2\C(=O)Nc3c(Cl)ccc(Cl)c32)c(OC)c1OC [PT-1-41] | 1.19 µM | 1.61 µM | 2.85 µM | 2.14 µM | 1.6 µM |  | 5.16 µM |
| COc1cc(C(=O)CC2(O)C(=O)Nc3c(Cl)ccc(Cl)c32)cc(OC)c1OC (centres unmarked) [PT-1-13] | ≥ 40 µM |  | ≥ 40 µM | ≥ 40 µM |  |  |  |
| Nc1ccc(C(=O)CC2(O)C(=O)Nc3c(Cl)ccc(Cl)c32)cc1 (centres unmarked) [YK-4-284] | ≥ 40 µM |  | ≥ 40 µM | ≥ 40 µM |  |  |  |
| O=C(CC1(O)C(=O)Nc2c(Cl)ccc(Cl)c21)c1ccc(Br)cc1 (centres unmarked) [YK-4-283] | 8.91 µM |  | 12.7 µM | 26 µM |  |  |  |
| CCCC(=O)CC1(O)C(=O)N(C)c2c(Cl)ccc(Cl)c21 (centres unmarked) [PT-2-71] | ≥ 40 µM |  | ≥ 40 µM | ≥ 40 µM |  |  |  |

| SMILES | IC50 [1, 4] | IC50 ([1]; TC32 cells) | IC50 [2, 5] | IC50 [3, 6] | IC50 ([3]; TC71 cells) | potency compared with YK-4-279 ([3]; TC71 cells) | IC50 [2, 7] |
| --- | --- | --- | --- | --- | --- | --- | --- |
| O=C(CC1(O)C(=O)Nc2c(Cl)ccc(Cl)c21)c1ccc(Cl)c(Cl)c1Cl (centres unmarked) [YK-4-288] | 3 µM |  | ≥ 40 µM | 9.35 µM |  |  |  |
| COc1ccc(C(=O)CC2(OC)C(=O)N(C)c3c(Cl)ccc(Cl)c32)cc1 (centres unmarked) [PT-2-79] | 12.1 µM |  | 11.2 µM | 17 µM |  |  |  |
| COc1ccc(C(=O)CC2(O)C(=O)Nc3cccc(Cl)c32)cc1 (centres unmarked) [PT-1-275] | ≥ 40 µM |  | ≥ 40 µM | ≥ 40 µM |  |  |  |
| O=C(CC1(O)C(=O)Nc2c(Cl)ccc(Cl)c21)c1ccc([N+](=O)[O-])cc1 (centres unmarked) [YK-4-286] | 4.63 µM |  | ≥ 40 µM | 9.15 µM |  |  |  |
| COc1ccc(C(=O)CC2(O)C(=O)Nc3cc(Cl)c(Cl)cc32)cc1 (centres unmarked) [PT-2-39] | ≥ 40 µM |  | ≥ 40 µM | ≥ 40 µM |  |  |  |
| O=C(CC1(O)C(=O)Nc2c(Cl)ccc(Cl)c21)c1ccc(Cl)cc1 (centres unmarked) [YK-4-275] | ≥ 40 µM |  | 11 µM | 23.9 µM |  |  |  |
| COc1ccc(C(=O)/C=C2\C(=O)Nc3c(Cl)ccc(Cl)c32)cc1 [PT-1-33] | 1.03 µM |  | ≥ 40 µM | 1.64 µM |  |  |  |
| O=C(CC1(O)C(=O)Nc2c(Cl)ccc(Cl)c21)c1ccc(Cl)c(Cl)c1 (centres unmarked) [YK-4-287] | 6.32 µM |  | 12.6 µM | 15.8 µM |  |  |  |
| O=C(CC1(O)C(=O)N(Cc2ccccc2)c2c(Cl)ccc(Cl)c21)c1ccc(Cl)cc1 (centres unmarked) [YK-4-276] | ≥ 40 µM |  | ≥ 40 µM | ≥ 40 µM |  |  |  |
| COc1ccc(C(=O)CC2(O)C(=O)Nc3c(Cl)ccc(Cl)c32)cc1OC (centres unmarked) [PT-1-21] | ≥ 40 µM |  | ≥ 40 µM | ≥ 40 µM |  |  |  |
| O=C(CC1(O)C(=O)Nc2c(Cl)ccc(Cl)c21)c1ccc(OC(F)(F)F)cc1 (centres unmarked) [PT-1-16] | ≥ 40 µM |  | ≥ 40 µM | ≥ 40 µM |  |  |  |
| CN(C)c1ccc(C(=O)/C=C2/C(=O)Nc3c(Cl)ccc(Cl)c32)cc1 [PT-1-53] | ≥ 40 µM |  | 2.2 µM | 4.08 µM |  |  |  |
| COc1ccccc1C(=O)CC1(O)C(=O)Nc2c(Cl)ccc(Cl)c21 (centres unmarked) [PT-1-12] | ≥ 40 µM |  | ≥ 40 µM | ≥ 40 µM |  |  |  |
| O=C(CC1(O)C(=O)Nc2c(Cl)ccc(Cl)c21)c1ccccc1Cl (centres unmarked) [YK-4-282] | ≥ 40 µM |  | ≥ 40 µM | ≥ 40 µM |  |  |  |
| COc1ccc(C(=O)CC2(O)C(=O)Nc3c(Cl)ccc(Cl)c32)c(OC)c1OC (centres unmarked) [PT-1-23] | 2.7 µM |  | ≥ 40 µM | 4.42 µM |  |  |  |
| COc1cccc(C(=O)CC2(O)C(=O)Nc3c(Cl)ccc(Cl)c32)c1 (centres unmarked) [PT-1-18] | ≥ 40 µM |  | ≥ 40 µM | ≥ 40 µM |  |  |  |
| O=C(CC1(O)C(=O)Nc2c(Cl)ccc(Cl)c21)c1ccc(O)cc1 (centres unmarked) [YK-4-289] | ≥ 40 µM |  | ≥ 40 µM | ≥ 40 µM |  |  |  |
| CCOc1ccc(C(=O)CC2(O)C(=O)Nc3c(Cl)ccc(Cl)c32)cc1 (centres unmarked) [PT-1-14] | 2.7 µM |  | 11.1 µM | 3.57 µM |  |  |  |
| COc1ccc(C(=O)CC2(O)C(=O)Nc3ccccc32)cc1 (centres unmarked) [PT-1-267] | ≥ 40 µM |  | ≥ 40 µM | ≥ 40 µM |  |  |  |
| O=C(CC1(O)C(=O)Nc2c(Cl)ccc(Cl)c21)c1ccccc1 (centres unmarked) [YK-4-285] | ≥ 40 µM |  | ≥ 40 µM | ≥ 40 µM |  |  |  |
| COc1ccc(C(=O)CC2(O)C(=O)Nc3cc(Br)cc(Br)c32)cc1 (centres unmarked) [PT-1-271] | ≥ 40 µM |  | ≥ 40 µM | ≥ 40 µM |  |  |  |
| COc1ccc(C(=O)/C=C2\C(=O)Nc3c(Cl)ccc(Cl)c32)c(OC)c1 [PT-1-39] | 1.05 µM | 1.66 µM | 5.41 µM | 1.81 µM | 2.32 µM |  | 6.76 µM |
| COc1ccc(C(=O)CC2(O)C(=O)Nc3c(Cl)ccc(Cl)c32)c(OC)c1 (centres unmarked) [PT-1-19] | 2.61 µM |  | 22.9 µM | 2.82 µM |  |  |  |
